Test results: PubChem BioAssay AID248 (DTP/NCI, 2004)
Where “and” joins values, the source holds several entries; their conditions need not be identical. Equal entries are not always repeated. Toxic doses and inconclusive results are not listed. Cut-off read from the data, not from the text of the source: active = T/C of 150% or more; inactive = T/C below 125%.

Test system: L1210 leukemia ip in BDF1 mice, survival T/C
Experiment: NCI In Vivo Anticancer Drug Screen. Data for tumor model L1210 Leukemia (intraperitoneal) in B6D2F1 (BDF1) mice
Settings: endpoint: mean survival time, higher = longer survival
Outline: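 Tumor was transplanted into mice, which were then dosed with test compound or vehicle alone. Survival was recorded for each group, and the treated figure was expressed relative to the control figure.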

[1] = dose: 12.5 mg/kg/injection, schedule: Q01DX009 (ip), vehicle: saline with Tween-80
[2] = dose: 200.0 mg/kg/injection, schedule: Q01DX009 (ip), vehicle: Klucel (hydroxypropylcellulose) (HPC)
[3] = dose: 50.0 mg/kg/injection, schedule: Q01DX001 (ip), vehicle: saline
[4] = dose: 100.0 mg/kg/injection, schedule: Q01DX001 (ip), vehicle: saline
[5] = dose: 200.0 mg/kg/injection, schedule: Q01DX001 (ip), vehicle: saline
[6] = dose: 400.0 mg/kg/injection, schedule: Q01DX001 (ip), vehicle: saline
[7] = dose: 100.0 mg/kg/injection, schedule: Q01DX009 (ip), vehicle: Klucel (hydroxypropylcellulose) (HPC)
[8] = dose: 100.0 mg/kg/injection, schedule: Q04DX003 (ip), vehicle: saline with Tween-80
[9] = dose: 200.0 mg/kg/injection, schedule: Q04DX003 (ip), vehicle: saline with Tween-80
[10] = dose: 400.0 mg/kg/injection, schedule: Q04DX003 (ip), vehicle: saline with Tween-80
[11] = dose: 100.0 mg/kg/injection, schedule: Q01DX001 (ip), vehicle: carboxymethylcellulose (CMC)
[12] = dose: 200.0 mg/kg/injection, schedule: Q01DX001 (ip), vehicle: carboxymethylcellulose (CMC)

Measured: T/C

CCOC(=O)c1ccc(N(CC(N)O)S(=O)(=O)c2ccc(C)cc2)cc1 (stereo not given)
inactive: [1] 96 % of control | dose: 25.0 mg/kg/injection, schedule: Q01DX009 (ip), vehicle: saline with Tween-80 98 % of control | dose: 50.0 mg/kg/injection, schedule: Q01DX009 (ip), vehicle: saline with Tween-80 98 % of control

Cc1oc2c(O)ccc(N=Nc3cccc([N+](=O)[O-])c3)c2c1C
inactive: [2] 93 % of control | dose: 400.0 mg/kg/injection, schedule: Q01DX009 (ip), vehicle: Klucel (hydroxypropylcellulose) (HPC) 90 % of control

c1ccc(CCN2CCC(CCc3c[nH]c4ccccc34)CC2)cc1
inactive: [3] 96 % of control | [4] 117 % of control

OC12CC3CC(CC(C3)C1)C2
inactive: [4] 95 % of control | [5] 106 % of control | [6] 103 % of control

Nc1nc(SCc2ccccc2)c2ncn(C3CCCO3)c2n1 (stereo not given)
inactive: dose: 25.0 mg/kg/injection, schedule: Q01DX Z (ip), vehicle: methylcellulose (MC) 101 % of control | dose: 50.0 mg/kg/injection, schedule: Q01DX Z (ip), vehicle: methylcellulose (MC) 120 % of control

O=c1oc2c3ccccc3c3ccccc3c2o1
inactive: dose: 25.0 mg/kg/injection, schedule: Q01DX009 (ip), vehicle: Klucel (hydroxypropylcellulose) (HPC) 113 % of control | dose: 50.0 mg/kg/injection, schedule: Q01DX009 (ip), vehicle: Klucel (hydroxypropylcellulose) (HPC) 103 % of control | [7] 94 % of control

CCOc1ccc(N=Cc2ccccc2OC(=O)c2ccccc2)cc1
inactive: dose: 100.0 mg/kg/injection, schedule: Q04DX002 (ip), vehicle: Klucel (hydroxypropylcellulose) (HPC) 105 % of control | dose: 200.0 mg/kg/injection, schedule: Q04DX002 (ip), vehicle: Klucel (hydroxypropylcellulose) (HPC) 101 % of control | dose: 400.0 mg/kg/injection, schedule: Q04DX002 (ip), vehicle: Klucel (hydroxypropylcellulose) (HPC) 97 % of control

N#CC1(C#N)C2C=CC(C2)C1(C#N)C#N
inactive: dose: 6.25 mg/kg/injection, schedule: Q01DX009 (ip), vehicle: saline with Tween-80 97 % of control | [1] 97 % of control

CC12CCC(C1)C(C)(C)C2NCCCN1C(=O)c2ccc3c4c(ccc(c24)C1=O)C(=O)N(CCCNC1C2(C)CCC(C2)C1(C)C)C3=O (stereo not given)
inactive: dose: 25.0 mg/kg/injection, schedule: Q01DX009 (ip), vehicle: saline 102 % of control | dose: 25.0 mg/kg/injection, schedule: Q04DX003 (ip), vehicle: saline 98 % of control | dose: 50.0 mg/kg/injection, schedule: Q01DX009 (ip), vehicle: saline 117 % of control | dose: 50.0 mg/kg/injection, schedule: Q04DX003 (ip), vehicle: saline 94 % of control | dose: 100.0 mg/kg/injection, schedule: Q04DX003 (ip), vehicle: saline 96 % of control and 90 % of control

O=C(Nc1ccc(F)cc1)c1ccc(C(=O)Nc2ccc(F)cc2)cc1
inactive: dose: 50.0 mg/kg/injection, schedule: Q04DX003 (ip), vehicle: saline with Tween-80 91 % of control | [4] 100 % of control | dose: 100.0 mg/kg/injection, schedule: Q01DX009 (ip), vehicle: saline with Tween-80 100 % of control | [8] 96 % of control | [5] 96 % of control | dose: 200.0 mg/kg/injection, schedule: Q01DX009 (ip), vehicle: saline with Tween-80 108 % of control | [9] 96 % of control | [6] 102 % of control | dose: 400.0 mg/kg/injection, schedule: Q01DX009 (ip), vehicle: saline with Tween-80 94 % of control

CCOC(=O)c1cc2c3n(c1=O)CCCC3C(c1ccccn1)OC2=O (stereo not given)
inactive: [4] 92 % of control | [5] 98 % of control | [6] 103 % of control

O=C(Cc1ccccc1)c1ccc(O)cc1O
inactive: [3] 104 % of control | [4] 104 % of control | dose: 100.0 mg/kg/injection, schedule: Q04DX003 (ip), vehicle: gum acacia 113 % of control | [5] 102 % of control | dose: 200.0 mg/kg/injection, schedule: Q04DX003 (ip), vehicle: gum acacia 98 % of control | [6] 102 % of control | dose: 400.0 mg/kg/injection, schedule: Q04DX003 (ip), vehicle: gum acacia 101 % of control

O=C(C1C2C=CC(CC2)C1C(=O)N1CCCCC1)N1CCCCC1 (stereo not given)
inactive: [8] 96 % of control | [9] 100 % of control | [10] 96 % of control

COC(=O)C1=CNC=C(C(=O)OC)C1c1ccc(C)cc1
inactive: [8] 95 % of control | [9] 93 % of control | [10] 91 % of control

NC(N)=N/N=C(/c1ccccc1)c1ccc(O)cc1O
inactive: dose: 15.0 mg/kg/injection, schedule: Q01DX Z (ip), vehicle: saline 101 % of control | dose: 30.0 mg/kg/injection, schedule: Q01DX Z (ip), vehicle: saline 92 % of control | dose: 60.0 mg/kg/injection, schedule: Q01DX Z (ip), vehicle: saline 94 % of control | dose: 120.0 mg/kg/injection, schedule: Q01DX Z (ip), vehicle: saline 92 % of control | dose: 120.0 mg/kg/injection, schedule: Q01DX Z (oral), vehicle: saline 101 % of control | dose: 240.0 mg/kg/injection, schedule: Q01DX Z (ip), vehicle: saline 108 % of control | dose: 240.0 mg/kg/injection, schedule: Q01DX Z (oral), vehicle: saline 102 % of control | dose: 480.0 mg/kg/injection, schedule: Q01DX Z (oral), vehicle: saline 101 % of control | dose: 960.0 mg/kg/injection, schedule: Q01DX Z (oral), vehicle: saline 98 % of control

CN(C)c1ncnc2c1ncn2C1CCC(CO)C1 (stereo not given)
inactive: [11] 105 % of control | [12] 96 % of control

Cc1cc(=O)c2cccc(C)c2[nH]1
inactive: [7] 95 % of control | dose: 100.0 mg/kg/injection, schedule: Q04DX003 (ip), vehicle: Klucel (hydroxypropylcellulose) (HPC) 95 % of control | [2] 90 % of control | dose: 200.0 mg/kg/injection, schedule: Q04DX003 (ip), vehicle: Klucel (hydroxypropylcellulose) (HPC) 98 % of control | dose: 400.0 mg/kg/injection, schedule: Q04DX003 (ip), vehicle: Klucel (hydroxypropylcellulose) (HPC) 98 % of control

Nc1c(N=O)c(=O)n(Cc2ccccc2)c(=O)n1Cc1ccccc1
inactive: dose: 50.0 mg/kg/injection, schedule: Q01DX001 (ip), vehicle: carboxymethylcellulose (CMC) 103 % of control | [11] 105 % of control | [12] 97 % of control | dose: 400.0 mg/kg/injection, schedule: Q01DX001 (ip), vehicle: carboxymethylcellulose (CMC) 100 % of control
